Legend:
mice = assay: Long-term survival after one injection; type: in vivo; settings: mouse, in vivo
Protocol: Long-term Survival. Groups of 10 mice were treated with one injection of ZCL278 (up to 0.8 mg/g), ZCL279 (up to 0.6 mg/g), or ZCL367 (up to 1.6 mg/g) to examine potential lethal dosage (the maximal dosage tested when no mice died). […] Durations longer than 3 months have not been tested. As a reference, working dosage for the behavioral assessment described below used 20 ug/g for injection, […] than the highest dosage of 0.8 mg/g tested in the long-term survival experiment.

C57BL/6 mice = assay: Toxicity experiment, I.P. injection; type: in vivo; settings: 5 minutes to 24 hours
Protocol: (§1) ZCL 278 Toxicity Experiment: Individual C57BL/6 mice of 4-6 months of age from Jackson Laboratory (Bar Harbor, Maine, United States of America) were submitted to ZCL278 treatment for 5 minutes, 30 minutes, 2 hours and 24 hours. The dosage of ZCL278 for each mouse was 0.8 mg/g body weight delivered via intraperitoneal (I.P.) injection of a 15 mg/ml solution of ZCL278 was dissolved in the sesame oil (10% DMSO).
as §1, with “279” for “278”, “ZCL279” for “ZCL278”, “0.6” for “0.8”
ZCL367 Toxicity Experiment: Individual C57BL/6 mice of 4-6 months of age from Jackson Laboratory (Bar Harbor, Maine, United States of America) were submitted to ZCL367 treatment for 1 hour or 2 weeks. The dosage of ZCL367 for each time period was 0.4 mg/g body weight or 0.8 mg/g body weight, delivered via I.P. injection. […] Mice were sacrificed after end of 1 hour or 2 weeks.

Swiss 3T3 cells = assay: Immunofluorescence, cell morphology and bradykinin-mediated activation; type: cell-based; settings: for changes to cell morphology: after 4 h of treatment, more drastic after six hours
Protocol: Immunofluorescence: Serum-starved Swiss 3T3 cells were pretreated with compound for 2 h before the addition of bradykinin (100 ng/mL) for 20 min. Cells were fixed in 4% paraformaldehyde for 15 min at RT and stored in PBS. Fixed cells were treated with 0.5% Triton for 30 min at RT, 100 mM Glycine 30 min at RT, and 10% BSA for 30 min at 37° C. Primary antibody for GM130 (1:1000, BD Biosciences, Franklin Lakes, New Jersey, United States of America) was used to probe for 1 h at RT followed by CY3-conjugated secondary antibody (1:1000) for 1 h at RT in the dark. Actin was stained with fluorescein-conjugated phalloidin (1:300). Hoechst (1:2500) was used to stain the nuclei. Coverslips were mounted onto slides using antifade medium from Life Technologies (Carlsbad, California, United States of America). Images were taken with a Zeiss Axiovert S100 microscope (Carl Zeiss; Thornwood, New York, United States of America).

Cdc42 = Cdc42 (Homo sapiens, UniProt P60953); assay: mant-GTP binding to Cdc42 with or without GEF/DH domain; type: biochemical; parameters: purchased Cytoskeleton Inc; settings: 5-500 μM
Cdc42, sequence (P60953 whole entry, the tested form may be a part): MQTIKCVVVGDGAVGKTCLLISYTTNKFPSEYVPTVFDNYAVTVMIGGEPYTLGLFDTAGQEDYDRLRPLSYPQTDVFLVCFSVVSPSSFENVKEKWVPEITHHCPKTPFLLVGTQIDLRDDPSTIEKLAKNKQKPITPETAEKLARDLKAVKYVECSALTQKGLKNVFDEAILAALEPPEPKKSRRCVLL
Protocol: Cdc42 (1 μM) was incubated with mant-GTP (1.5 μM) and varying concentrations of ZCL278, ZCL279, or ZCL367 (5-500 μM). Fluorescent readings were taken every minute for 10 m to acquire the baseline. The GEF/DH domain (0.08-0.2 μM) was added followed by readings taken every minute for another 30 m. The linear phase was calculated from within the time period of 12-22 m. Cdc42 (1 μM) was incubated with mant-GTP (1.5 μM) and varying concentrations of ZCL278, ZCL279, or ZCL367 (5-500 μM). Fluorescent readings were taken every minute for 30 m to monitor the binding of mant-GTP in the absence of GEF/DH domain.

microglia = assay: Pro-inflammatory microglia in the hippocampus (Iba-1); type: in vivo; settings: WT mice; 20× objective lens
Protocol: (§2) Tissue preparation: Mice were deeply anesthetized with 3% isoflourane vapor and euthanized by cervical dislocation. Brain tissues were harvested, and then either snap frozen for Western Blot analysis or fixed in 4% paraformaldehyde overnight for immunohistochemistry (IHC) analysis. Fixed brain tissues were washed with phosphate-buffered saline (PBS) and moved to cryoprotectant (30% sucrose in PBS) at 4° C. Once sunk in the cryoprotectant, brain tissues were subsequently embedded in the optimal cutting temperature compound (O.C.T) and rapidly frozen with chilled isopentane. Then, 8˜30 μm thickness of cryostate section was applied to brain tissues, 30 μm sections were immersed in the PBS and store at 4° C. refrigerator, and 8 μm sections were store at −80° C. refrigerator.
(§3) Immunohistochemistry analysis: All sections were first treated with 1% H2O2 in PBS for 20 minutes at room temperature, then incubated with 0.5% Triton X-100 for 30 minutes and blocked for 30 minutes at room temperature. Brain tissues were incubated with primary antibodies from Table 6, below. […] All sections were eventually dehydrated in 95% ethanol and mounted on coverslips for light microscopy (Carl Zeiss, Thornwood, New York, United States of America).
(§4) Methods: Brain tissues collected from each treatment group of mice from the behavior studies were subjected to pathological analysis (e.g., immunohistochemical analysis, as described above in Example 5). […] Growth cone dynamics and spine motility were either recorded with time-lapse microscopy or stained by using the fluorescein isothiocyanate (FITC) or Cyanine Dye 3 (Cy3)-conjugated Phalloidin.

[1] = system: microtubule-associated tau; assay: Tau phosphorylation in the dentate gyrus (antibody AT8 immunostaining); type: in vivo, mice
Protocol: as §2, §3, §4

amyloid deposits = assay: Amyloid deposition in the hippocampus (antibody 4G8 immunostaining); type: in vivo, mice; settings: for amyloid deposits in the hippocampus: 3×Tg AD mice (untreated: average of 4); for amyloid deposition in the hippocampus: WT mice
Protocol: as §2, §3, §4

Compound | Lethal Dosage (mice) | Longest Dosing Duration (mice) | gross anatomic toxicity (plasma, liver, kidney and brain tissues) (C57BL/6 mice; 0.6 mg/g body weight I.P.) | kind of morphology change (Swiss 3T3 cells; Swiss 3T3 cells) | changes to cell morphology (Swiss 3T3 cells) | effect on Cdc42 (mant-GTP binding) (Cdc42; in the absence of GEF domain) | effect on Cdc42 (mant-GTP binding) (Cdc42; in the presence of GEF domain) | Average Number of Microglia per Microscope Field, CA1 (microglia) | Average Number of Microglia per Microscope Field, CA2-3 (microglia) | Average Number of Microglia per Microscope Field, DG (microglia) | phosphorylation of microtubule-associated tau in the dentate gyrus ([1]; 3×Tg AD mice) | phosphorylation of microtubule-associated tau in the dentate gyrus ([1]; WT mice) | amyloid deposits in the hippocampus (amyloid deposits) | amyloid deposition in the hippocampus (amyloid deposits) | gross anatomic toxicity (plasma, liver, kidney and brain tissues) (C57BL/6 mice; 0.8 mg/g body weight I.P.) | bradykinin-mediated activation (Swiss 3T3 cells; Swiss 3T3 cells, bradykinin 100 ng/mL)
O=S(=O)(Nc1ccccc1O)c1ccc2oc3ccc(S(=O)(=O)Nc4ccccc4O)cc3c2c1 [ZCL279, N^2,N^8-bis(2-hydroxyphenyl)dibenzo[b,d]furan-2,8-disulfonamide] | 0.6 mg/g | 3 months | no gross anatomic toxicity | reduction in cell body size and formation of elongated processes | significant changes to cell morphology | has no effect | activates Cdc42 | 13 | 10 | 4 | not evident | no evidence | no amyloid deposits | No amyloid deposition | – | –
Cc1cc(C)nc(NS(=O)(=O)c2ccc(NC(=S)NC(=O)COc3ccc(Br)cc3Cl)cc2)n1 [ZCL278, 4-(3-(2-(4-bromo-2-chloro-phenoxy)-acetyl)-thioureido)-N-(4,6-dimethylpyrimidin-2-yl)-benzenesulfonamide] | 0.8 mg/g | 3 months | – | increase in ramification | significant changes to cell morphology | activates Cdc42 | acts as an inhibitor | 12 | 10 | 8 | not evident | no evidence | no amyloid deposits | No amyloid deposition | no gross anatomic toxicity | inhibit bradykinin-mediated activation
